tested on: not listed separately; assay: Cytotoxicity against human NCI-H2722 cells measured after 8 days; format: functional, cell-based; settings: NCI-H2722, 192 h

Structure (SMILES) | IC50 [µM]
C/C=C/Cn1cc(-c2ccc(C(=O)N3CCOCC3)cc2)c2cc[nH]c2c1=O | 20

tested on: HCC4017; assay: Cytotoxicity against human HCC4017 cells measured after 8 days; format: functional, cell-based; settings: HCC4017, 192 h

Structure (SMILES) | IC50 [µM]
C/C=C/Cn1cc(-c2ccc(C(=O)N3CCOCC3)cc2)c2cc[nH]c2c1=O | 20

biological target: Serine/threonine-protein kinase 24 (Homo sapiens) (UniProt Q9Y6E0); assay: Inhibition of MST3 (unknown origin) at 1 uM relative to control; settings: not given
Sequence (Q9Y6E0 whole entry, looked up): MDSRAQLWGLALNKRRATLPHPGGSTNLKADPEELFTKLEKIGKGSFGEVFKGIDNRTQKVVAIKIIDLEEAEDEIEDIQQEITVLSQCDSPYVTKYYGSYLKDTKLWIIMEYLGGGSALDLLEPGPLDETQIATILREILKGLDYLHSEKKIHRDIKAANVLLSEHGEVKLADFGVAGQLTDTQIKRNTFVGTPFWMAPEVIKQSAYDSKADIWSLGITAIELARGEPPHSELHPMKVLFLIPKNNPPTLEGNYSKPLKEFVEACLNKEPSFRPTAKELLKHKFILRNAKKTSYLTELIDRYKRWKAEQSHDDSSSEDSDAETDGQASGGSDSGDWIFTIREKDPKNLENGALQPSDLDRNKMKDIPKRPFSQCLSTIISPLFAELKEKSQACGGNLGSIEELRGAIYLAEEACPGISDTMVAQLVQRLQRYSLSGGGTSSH

Structure (SMILES) | inhibition [%]
C/C=C/Cn1cc(-c2ccc(C(=O)N3CCOCC3)cc2)c2cc[nH]c2c1=O | -2.5

tested on: JeKo-1; assay: Cytotoxicity against human JeKo-1 cells measured after 8 days; format: functional, cell-based; settings: JeKo-1, 192 h

Structure (SMILES) | IC50 [µM]
C/C=C/Cn1cc(-c2ccc(C(=O)N3CCOCC3)cc2)c2cc[nH]c2c1=O | 9.95

tested on: NCI-H1581; assay: Cytotoxicity against human NCI-H1581 cells measured after 8 days; format: functional, cell-based; settings: NCI-H1581, 192 h

Structure (SMILES) | IC50 [µM]
C/C=C/Cn1cc(-c2ccc(C(=O)N3CCOCC3)cc2)c2cc[nH]c2c1=O | 20

biological target: Aurora kinase B (Homo sapiens) (UniProt Q96GD4); assay: Inhibition of Aurora B (unknown origin) at 1 uM relative to control; settings: not given
Sequence (Q96GD4 whole entry): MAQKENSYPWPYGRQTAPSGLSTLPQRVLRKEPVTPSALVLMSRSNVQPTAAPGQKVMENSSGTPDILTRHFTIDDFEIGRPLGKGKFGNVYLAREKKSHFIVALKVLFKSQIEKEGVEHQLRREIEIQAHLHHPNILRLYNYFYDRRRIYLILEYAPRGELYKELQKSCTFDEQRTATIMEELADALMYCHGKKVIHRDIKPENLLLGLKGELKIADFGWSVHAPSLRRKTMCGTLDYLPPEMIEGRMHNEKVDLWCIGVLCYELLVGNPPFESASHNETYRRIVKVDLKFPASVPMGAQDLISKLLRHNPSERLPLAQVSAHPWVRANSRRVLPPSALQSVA

Structure (SMILES) | inhibition [%]
C/C=C/Cn1cc(-c2ccc(C(=O)N3CCOCC3)cc2)c2cc[nH]c2c1=O | -0.4

tested on: EB2; assay: Cytotoxicity against human EB2 cells measured after 8 days; format: functional, cell-based; settings: EB2, 192 h

Structure (SMILES) | IC50 [µM]
C/C=C/Cn1cc(-c2ccc(C(=O)N3CCOCC3)cc2)c2cc[nH]c2c1=O | 20

tested on: GP5d; assay: Cytotoxicity against human GP5d cells measured after 8 days; format: functional, cell-based; settings: 192 h

Structure (SMILES) | IC50 [µM]
C/C=C/Cn1cc(-c2ccc(C(=O)N3CCOCC3)cc2)c2cc[nH]c2c1=O | 20

tested on: HPAC; assay: Cytotoxicity against human HPAC cells measured after 8 days; format: functional, cell-based; settings: 192 h

Structure (SMILES) | IC50 [µM]
C/C=C/Cn1cc(-c2ccc(C(=O)N3CCOCC3)cc2)c2cc[nH]c2c1=O | 20

biological target: Proto-oncogene tyrosine-protein kinase Src (Homo sapiens) (UniProt P12931); assay: Inhibition of Src (unknown origin) at 1 uM relative to control; settings: not given
Sequence (P12931 2-536 limits assumed): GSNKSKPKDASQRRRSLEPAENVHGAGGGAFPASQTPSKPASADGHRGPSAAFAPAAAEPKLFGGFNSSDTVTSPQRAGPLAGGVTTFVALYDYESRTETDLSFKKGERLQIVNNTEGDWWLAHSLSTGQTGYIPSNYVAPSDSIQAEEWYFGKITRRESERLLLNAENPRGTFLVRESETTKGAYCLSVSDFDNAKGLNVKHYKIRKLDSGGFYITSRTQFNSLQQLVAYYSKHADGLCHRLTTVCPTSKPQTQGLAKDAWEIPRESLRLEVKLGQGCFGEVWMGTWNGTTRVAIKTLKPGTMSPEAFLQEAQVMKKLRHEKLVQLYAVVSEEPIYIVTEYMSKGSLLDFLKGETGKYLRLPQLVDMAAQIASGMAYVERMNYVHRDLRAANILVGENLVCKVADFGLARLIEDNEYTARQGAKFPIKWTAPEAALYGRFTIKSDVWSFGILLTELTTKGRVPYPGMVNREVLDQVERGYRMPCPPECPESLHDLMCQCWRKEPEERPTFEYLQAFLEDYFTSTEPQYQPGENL

Structure (SMILES) | inhibition [%]
C/C=C/Cn1cc(-c2ccc(C(=O)N3CCOCC3)cc2)c2cc[nH]c2c1=O | 0.9

tested on: NCI-H2228; assay: Cytotoxicity against human NCI-H2228 cells measured after 8 days; format: functional, cell-based; settings: NCI-H2228, 192 h

Structure (SMILES) | IC50 [µM]
C/C=C/Cn1cc(-c2ccc(C(=O)N3CCOCC3)cc2)c2cc[nH]c2c1=O | 20

tested on: SW-620; assay: Cytotoxicity against human SW620 cells measured after 8 days; format: functional, cell-based; settings: SW-620, 192 h

Structure (SMILES) | IC50 [µM]
C/C=C/Cn1cc(-c2ccc(C(=O)N3CCOCC3)cc2)c2cc[nH]c2c1=O | 20

biological target: Cyclin-dependent kinase 2/cyclin A (Homo sapiens) (UniProt P24941+P20248+P78396); assay: Inhibition of CDK2/cyclin A (unknown origin) at 1 uM relative to control; format: protein-complex assay; settings: not given

Structure (SMILES) | inhibition [%]
C/C=C/Cn1cc(-c2ccc(C(=O)N3CCOCC3)cc2)c2cc[nH]c2c1=O | 1.6

tested on: DB; assay: Cytotoxicity against human DB cells measured after 8 days; format: functional, cell-based; settings: 192 h

Structure (SMILES) | IC50 [µM]
C/C=C/Cn1cc(-c2ccc(C(=O)N3CCOCC3)cc2)c2cc[nH]c2c1=O | 20

tested on: OCI-LY19; assay: Cytotoxicity against human OCILY19 cells measured after 8 days; format: functional, cell-based; settings: OCI-LY19, 192 h

Structure (SMILES) | IC50 [µM]
C/C=C/Cn1cc(-c2ccc(C(=O)N3CCOCC3)cc2)c2cc[nH]c2c1=O | 20

tested on: PC-3; assay: Cytotoxicity against human PC-3 cells measured after 8 days; format: functional, cell-based; settings: PC-3, 192 h

Structure (SMILES) | IC50 [µM]
C/C=C/Cn1cc(-c2ccc(C(=O)N3CCOCC3)cc2)c2cc[nH]c2c1=O | 20

tested on: not listed separately; assay: Cytotoxicity against human HCA7 cells measured after 8 days; format: functional, cell-based; settings: HCA-7, 192 h

Structure (SMILES) | IC50 [µM]
C/C=C/Cn1cc(-c2ccc(C(=O)N3CCOCC3)cc2)c2cc[nH]c2c1=O | 20

biological target: Dual specificity protein kinase CLK2 (Homo sapiens) (UniProt P49760); assay: Inhibition of CLK2 (unknown origin) at 1 uM relative to control; settings: not given
Sequence (P49760 whole entry, looked up): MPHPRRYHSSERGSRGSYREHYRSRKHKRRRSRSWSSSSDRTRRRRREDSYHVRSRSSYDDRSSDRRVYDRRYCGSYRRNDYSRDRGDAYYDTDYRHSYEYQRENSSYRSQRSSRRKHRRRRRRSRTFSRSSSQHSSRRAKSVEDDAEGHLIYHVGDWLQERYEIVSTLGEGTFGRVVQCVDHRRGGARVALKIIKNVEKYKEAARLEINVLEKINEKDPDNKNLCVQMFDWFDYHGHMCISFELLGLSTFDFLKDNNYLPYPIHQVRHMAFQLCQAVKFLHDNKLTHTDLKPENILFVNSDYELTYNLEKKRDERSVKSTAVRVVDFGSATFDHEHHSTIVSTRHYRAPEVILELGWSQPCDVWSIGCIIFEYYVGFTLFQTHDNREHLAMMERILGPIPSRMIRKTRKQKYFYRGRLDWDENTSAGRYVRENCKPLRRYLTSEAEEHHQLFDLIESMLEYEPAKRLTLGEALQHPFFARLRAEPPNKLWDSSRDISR

Structure (SMILES) | inhibition [%]
C/C=C/Cn1cc(-c2ccc(C(=O)N3CCOCC3)cc2)c2cc[nH]c2c1=O | 2

tested on: NCI-H1651; assay: Cytotoxicity against human NCI-H1651 cells measured after 8 days; format: functional, cell-based; settings: NCI-H1651, 192 h

Structure (SMILES) | IC50 [µM]
C/C=C/Cn1cc(-c2ccc(C(=O)N3CCOCC3)cc2)c2cc[nH]c2c1=O | 20

tested on: not listed separately; assay: Cytotoxicity against human NCI-H1339 cells measured after 8 days; format: functional, cell-based; settings: NCI-H1339, 192 h

Structure (SMILES) | IC50 [µM]
C/C=C/Cn1cc(-c2ccc(C(=O)N3CCOCC3)cc2)c2cc[nH]c2c1=O | 20

biological target: T1, Myotonin-protein kinase (Homo sapiens) (UniProt Q09013); assay: Inhibition of DMPK (unknown origin) at 1 uM relative to control; settings: not given
T1 sequence (whole entry): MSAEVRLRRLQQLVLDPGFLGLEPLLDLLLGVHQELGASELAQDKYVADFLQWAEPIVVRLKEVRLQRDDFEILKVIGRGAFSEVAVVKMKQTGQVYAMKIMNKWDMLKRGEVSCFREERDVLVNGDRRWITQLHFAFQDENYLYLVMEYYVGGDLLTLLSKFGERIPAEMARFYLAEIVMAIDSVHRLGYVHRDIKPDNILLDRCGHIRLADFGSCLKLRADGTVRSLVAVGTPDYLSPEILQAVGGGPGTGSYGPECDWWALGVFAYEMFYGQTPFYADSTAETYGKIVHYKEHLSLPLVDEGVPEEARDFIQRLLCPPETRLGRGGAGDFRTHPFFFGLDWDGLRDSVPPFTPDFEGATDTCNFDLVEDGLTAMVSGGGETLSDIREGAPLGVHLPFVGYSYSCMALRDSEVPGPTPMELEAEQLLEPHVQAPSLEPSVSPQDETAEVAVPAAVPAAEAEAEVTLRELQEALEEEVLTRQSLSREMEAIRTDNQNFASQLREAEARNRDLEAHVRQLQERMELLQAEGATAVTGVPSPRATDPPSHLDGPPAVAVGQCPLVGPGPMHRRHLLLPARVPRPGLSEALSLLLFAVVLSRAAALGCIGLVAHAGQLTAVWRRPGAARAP

Structure (SMILES) | inhibition [%]
C/C=C/Cn1cc(-c2ccc(C(=O)N3CCOCC3)cc2)c2cc[nH]c2c1=O | -2

tested on: UACC-62; assay: Cytotoxicity against human UACC-62 cells measured after 8 days; format: functional, cell-based; settings: UACC-62, 192 h

Structure (SMILES) | IC50 [µM]
C/C=C/Cn1cc(-c2ccc(C(=O)N3CCOCC3)cc2)c2cc[nH]c2c1=O | 20

tested on: NCI-H727; assay: Cytotoxicity against human NCI-H727 cells measured after 8 days; format: functional, cell-based; settings: NCI-H727, 192 h

Structure (SMILES) | IC50 [µM]
C/C=C/Cn1cc(-c2ccc(C(=O)N3CCOCC3)cc2)c2cc[nH]c2c1=O | 20

tested on: not listed separately; assay: Cytotoxicity against human SW527 cells measured after 8 days; format: functional, cell-based; settings: SW527, 192 h

Structure (SMILES) | IC50 [µM]
C/C=C/Cn1cc(-c2ccc(C(=O)N3CCOCC3)cc2)c2cc[nH]c2c1=O | 20

biological target: Protein polybromo-1 (Homo sapiens, UniProt Q86U86); assay: Binding affinity to human partial length PBRM1 bromodomain 1 (S178 to E291 residues) expressed in bacterial expression system by BROMOscan assay; settings: not given
Sequence (Q86U86 whole entry, the tested form may be a part): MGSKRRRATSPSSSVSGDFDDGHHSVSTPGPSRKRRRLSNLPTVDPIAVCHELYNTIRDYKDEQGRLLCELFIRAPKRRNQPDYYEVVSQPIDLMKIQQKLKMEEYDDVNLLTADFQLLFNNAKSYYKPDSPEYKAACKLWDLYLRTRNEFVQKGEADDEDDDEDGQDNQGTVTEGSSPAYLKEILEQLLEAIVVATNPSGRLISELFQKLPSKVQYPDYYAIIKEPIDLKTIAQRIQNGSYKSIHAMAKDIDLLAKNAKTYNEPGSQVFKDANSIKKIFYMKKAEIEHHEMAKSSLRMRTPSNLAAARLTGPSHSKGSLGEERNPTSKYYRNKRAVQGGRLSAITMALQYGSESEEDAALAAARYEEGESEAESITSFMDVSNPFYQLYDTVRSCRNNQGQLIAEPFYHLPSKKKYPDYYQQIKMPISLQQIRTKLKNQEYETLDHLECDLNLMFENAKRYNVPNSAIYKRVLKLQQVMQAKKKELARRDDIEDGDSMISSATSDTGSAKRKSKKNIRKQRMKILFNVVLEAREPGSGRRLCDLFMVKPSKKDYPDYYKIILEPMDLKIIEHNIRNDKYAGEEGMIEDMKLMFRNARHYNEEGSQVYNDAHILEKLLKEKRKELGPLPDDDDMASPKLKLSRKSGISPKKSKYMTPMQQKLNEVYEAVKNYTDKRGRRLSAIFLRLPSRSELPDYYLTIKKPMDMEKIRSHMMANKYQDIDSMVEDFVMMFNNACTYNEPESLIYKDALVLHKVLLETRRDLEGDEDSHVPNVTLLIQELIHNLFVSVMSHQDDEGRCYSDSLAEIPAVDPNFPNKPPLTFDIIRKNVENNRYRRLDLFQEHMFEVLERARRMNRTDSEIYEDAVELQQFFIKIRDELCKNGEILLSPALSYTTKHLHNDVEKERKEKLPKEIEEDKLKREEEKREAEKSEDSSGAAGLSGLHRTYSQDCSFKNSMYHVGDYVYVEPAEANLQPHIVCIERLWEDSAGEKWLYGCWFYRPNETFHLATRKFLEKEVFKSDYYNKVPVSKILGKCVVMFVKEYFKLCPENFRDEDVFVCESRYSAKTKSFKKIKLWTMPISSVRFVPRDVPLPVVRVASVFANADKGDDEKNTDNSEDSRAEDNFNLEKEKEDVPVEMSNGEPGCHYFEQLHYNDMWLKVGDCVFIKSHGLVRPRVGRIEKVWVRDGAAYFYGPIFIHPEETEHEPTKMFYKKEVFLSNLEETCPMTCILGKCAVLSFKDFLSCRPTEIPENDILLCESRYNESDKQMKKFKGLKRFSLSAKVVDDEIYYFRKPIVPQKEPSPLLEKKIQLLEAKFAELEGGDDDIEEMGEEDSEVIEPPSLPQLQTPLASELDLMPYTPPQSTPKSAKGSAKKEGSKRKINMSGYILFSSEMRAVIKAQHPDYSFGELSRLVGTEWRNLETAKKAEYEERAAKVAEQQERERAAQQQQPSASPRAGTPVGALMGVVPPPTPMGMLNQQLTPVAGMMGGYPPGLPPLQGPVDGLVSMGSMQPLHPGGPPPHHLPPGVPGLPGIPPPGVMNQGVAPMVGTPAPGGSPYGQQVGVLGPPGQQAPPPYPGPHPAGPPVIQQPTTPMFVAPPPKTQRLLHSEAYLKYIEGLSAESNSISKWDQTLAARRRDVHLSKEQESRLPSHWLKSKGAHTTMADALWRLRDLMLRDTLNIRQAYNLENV

Structure (SMILES) | Kd [µM]
C/C=C/Cn1cc(-c2ccc(C(=O)N3CCOCC3)cc2)c2cc[nH]c2c1=O | > 10
C/C=C/Cn1cc(-c2cc(OC)c(C(C)(C)O)cc2OC)c2cc(C)[nH]c2c1=O | > 10

biological target: T2, Endothelin-1 receptor (Homo sapiens) (UniProt P25101); assay: Displacement of [125I]-endothelin-1 from human recombinant ETA receptor at 10 uM after 120 mins by scintillation counting analysis relative to control; settings: not given
T2 sequence (whole entry): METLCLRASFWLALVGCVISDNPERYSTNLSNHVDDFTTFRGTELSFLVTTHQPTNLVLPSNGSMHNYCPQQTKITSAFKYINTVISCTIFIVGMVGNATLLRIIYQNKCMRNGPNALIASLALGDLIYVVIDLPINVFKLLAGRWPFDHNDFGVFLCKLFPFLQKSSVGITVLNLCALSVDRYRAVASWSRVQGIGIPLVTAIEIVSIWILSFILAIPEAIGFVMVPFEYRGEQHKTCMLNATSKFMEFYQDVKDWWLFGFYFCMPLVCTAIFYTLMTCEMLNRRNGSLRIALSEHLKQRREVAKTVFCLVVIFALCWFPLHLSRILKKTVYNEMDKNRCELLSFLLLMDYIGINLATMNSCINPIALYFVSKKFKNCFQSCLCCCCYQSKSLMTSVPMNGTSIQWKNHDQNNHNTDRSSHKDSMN

Structure (SMILES) | Activity [%]
C/C=C/Cn1cc(-c2ccc(C(=O)N3CCOCC3)cc2)c2cc[nH]c2c1=O | 10

tested on: LXF-289 cell line; assay: Cytotoxicity against human LXF-289 cell line measured after 8 days; format: functional, cell-based; settings: LXF-289, 192 h

Structure (SMILES) | IC50 [µM]
C/C=C/Cn1cc(-c2ccc(C(=O)N3CCOCC3)cc2)c2cc[nH]c2c1=O | 20

tested on: HCC1419; assay: Cytotoxicity against human HCC1419 cells measured after 8 days; format: functional, cell-based; settings: HCC1419, 192 h

Structure (SMILES) | IC50 [µM]
C/C=C/Cn1cc(-c2ccc(C(=O)N3CCOCC3)cc2)c2cc[nH]c2c1=O | 20

tested on: NCI-H1975; assay: Cytotoxicity against human NCI-H1975 cells measured after 8 days; format: functional, cell-based; settings: NCI-H1975, 192 h

Structure (SMILES) | IC50 [µM]
C/C=C/Cn1cc(-c2ccc(C(=O)N3CCOCC3)cc2)c2cc[nH]c2c1=O | 20

tested on: KP-4; assay: Cytotoxicity against human KP-4 cells measured after 8 days; format: functional, cell-based; settings: KP-4, 192 h

Structure (SMILES) | IC50 [µM]
C/C=C/Cn1cc(-c2ccc(C(=O)N3CCOCC3)cc2)c2cc[nH]c2c1=O | 20

tested on: KNS-62; assay: Cytotoxicity against human KNS-62 cells measured after 8 days; format: functional, cell-based; settings: KNS-62, 192 h

Structure (SMILES) | IC50 [µM]
C/C=C/Cn1cc(-c2ccc(C(=O)N3CCOCC3)cc2)c2cc[nH]c2c1=O | 20

tested on: NCI-H358; assay: Cytotoxicity against human NCI-H358 cells measured after 8 days; format: functional, cell-based; settings: NCI-H358, 192 h

Structure (SMILES) | IC50 [µM]
C/C=C/Cn1cc(-c2ccc(C(=O)N3CCOCC3)cc2)c2cc[nH]c2c1=O | 20

biological target: Sodium-dependent dopamine transporter (Homo sapiens) (UniProt Q01959); assay: Displacement of […] from recombinant human Dopamine transporter at 10 uM after 120 mins by scintillation counting analysis relative to control; settings: not given
Sequence (Q01959 whole entry): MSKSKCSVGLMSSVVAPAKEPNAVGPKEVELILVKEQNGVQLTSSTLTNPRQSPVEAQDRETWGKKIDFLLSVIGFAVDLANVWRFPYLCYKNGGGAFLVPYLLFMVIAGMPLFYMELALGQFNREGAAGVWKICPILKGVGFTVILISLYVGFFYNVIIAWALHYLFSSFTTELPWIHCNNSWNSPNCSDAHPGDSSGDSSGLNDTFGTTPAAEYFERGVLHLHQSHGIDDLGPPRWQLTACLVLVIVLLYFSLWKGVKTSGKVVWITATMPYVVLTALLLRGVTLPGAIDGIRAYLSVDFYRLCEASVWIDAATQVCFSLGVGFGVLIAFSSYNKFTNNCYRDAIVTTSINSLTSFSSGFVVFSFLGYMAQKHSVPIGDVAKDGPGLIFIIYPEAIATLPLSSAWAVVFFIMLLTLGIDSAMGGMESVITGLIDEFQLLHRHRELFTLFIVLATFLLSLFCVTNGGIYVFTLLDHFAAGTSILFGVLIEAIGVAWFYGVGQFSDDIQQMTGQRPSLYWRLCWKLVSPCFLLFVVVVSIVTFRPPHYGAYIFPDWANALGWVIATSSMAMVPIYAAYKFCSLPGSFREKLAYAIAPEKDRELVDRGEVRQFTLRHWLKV

Structure (SMILES) | Activity [%]
C/C=C/Cn1cc(-c2ccc(C(=O)N3CCOCC3)cc2)c2cc[nH]c2c1=O | 15

tested on: HOP-62; assay: Cytotoxicity against human HOP-62 cells measured after 8 days; format: functional, cell-based; settings: HOP-62, 192 h

Structure (SMILES) | IC50 [µM]
C/C=C/Cn1cc(-c2ccc(C(=O)N3CCOCC3)cc2)c2cc[nH]c2c1=O | 20

From ChEMBL document CHEMBL5260810, “Inhibition of bromodomain-containing protein 9 for the prevention of epigenetically-defined drug resistance” (Bioorg Med Chem Lett, 2017)
